From patent publication US20260083704A1, “LXR MODULATORS WITH BICYCLIC CORE MOIETY FOR TREATING DYSLIPIDEMIAS” (OrsoBio, Inc., priority 2022, published 2026)

System: DIO mice
Test: Two-step hyperinsulinemic-euglycemic clamp in DIO mice
Type: in vivo
Settings: 5 mg/kg once daily oral
Source text: Data are shown as mean±SD. N=5-11 animals per group. *p≤0.05, **p≤0.01, ***p≤0.001, ****p≤0.0001 vs. vehicle, unless otherwise indicated; ^#p≤0.05 pioglitazone vs. vehicle. Repeated measures Two-way ANOVA with Dunnett's multiple comparisons test (FIG. 7A, FIG. 7D), Two-way ANOVA with Dunnett's multiple comparisons test (FIG. 7B, FIG. 7C). EDL=extensor digitorum longus, GIR=glucose infusion rate, HGP=hepatic glucose production, iWAT=inguinal white adipose tissue.
The effects of chronic dosing of Compound 21/3 and Compound pre-6/3 were evaluated in DIO mice and HFD-fed ZDF rats, respectively. Briefly, C57BL/6 mice were fed a HFD for 16 weeks prior to treatment with Compound pre-6/3 (5 mg/kg) or pioglitazone (30 mg/kg; positive control) once daily by oral gavage. After four weeks of treatment, a two-step hyperinsulinemic-euglycemic clamp along with the infusion of radiotracers to monitor glucose disposal and hepatic glucose production was performed. […] These changes were associated with a reduction in hepatic glucose production in the Compound pre-6/3-treated mice, more evident during the 8 mU/kg/min insulin infusion (FIG. 7B).

Question: Which results are given for `N#Cc1cccc(C#N)c1-c1c(-c2cccc(-c3ccc(C(=O)O)cc3Cl)c2)n(S(=O)(=O)c2ccc(C(F)F)cc2)c2ccc(F)cc12` [pre-6/3]?
Answer: glucose utilization by muscle versus vehicle (end of the clamp): significantly higher; glucose infusion rate versus vehicle (four weeks, insulin infusion 8 and 18 mU/kg/min): significantly higher; hepatic glucose production (four weeks, more evident at 8 mU/kg/min): reduction
